US12440466B2, “Fatty acid derivatives for treating non-alcoholic steatohepatitis” (BASF AS, priority 2017, dated 2025)
Marks after values point to notes of the source that are not given here.

Columns and labels:
APOE*3Leiden.CETP mice = experiment: Hepatocellular hypertrophy grading in APOE*3Leiden.CETP double transgenic mice; assay type: in vivo, mouse; conditions: APOE*3Leiden.CETP mice on high fat/cholesterol diet; 0.3 mmol/kg bw per day by gavage; 20 weeks
Excerpt: The APOE*3Leiden.CETP double transgenic mouse expresses a variant of the human apolipoprotein E3 (APOE3), the APOE*3Leiden, in addition to the human apolipoprotein C1 (APOC1) and CETP. […] By increasing the cholesterol content of the diet in this model, all the characteristics of human NASH develop.
In one study (using 1% cholesterol w/w), after a 3 weeks run-in period low-responder mice (20% of total) were removed from the study and the remaining mice were sub-divided into 4 groups of 12 mice each (+5 in the control group), matched for plasma cholesterol, triglycerides, blood glucose, body weight and age (t=0) and treatment was started. The mice received a daily gavage between 07hr00 and 10hr00 with either Compound A at 0.3 mmol/kg bw per day, the comparison compound Compound N (0.3 mmol/kg bw per day), rosiglitazone (13 mg/kg bw per day) or control (corn oil). After 20 weeks of treatment mice were sacrificed by CO2 asphyxiation, the liver was collected and the level of hepatocellular hypertrophy was graded.

[1] = Body weight, liver weight and food intake in ob/ob AMLN mice; assay type: in vivo, mouse
Description: (§1) Obese diet-induced B6.V-Lepob/Jrj mice (ob/ob) are consistently fibrosis (liver) prone when cholesterol (2%), 40% fat (containing 18% trans-fatty acids) and 20% fructose are added to a high-caloric diet (i.e., AMLN high-fat diet). ob/ob mice on AMLN diet (termed ‘ob/ob AMLN mice’) develop steatohepatitis and fibrosis within a shorter timeframe ([…]) compared with wild-type C57BL/6 mice (AMLN mice) fed the same diet. ob/ob AMLN mice provide an obese diet-induced model of NASH that also allows the study of effects on glycemic control. Development of NASH in the ob/ob AMLN model is confirmed by biopsy.
(§2) In Biological Examples 10-12, 15, and 19, studies were performed in male ob/ob mice (5 weeks old) fed an AMLN high-fat diet for 15 weeks, then randomized into 3 groups (n=10 per group) to receive either 112 mg/kg bw per day of Compound A via diet, 30 mg/kg bw per day pioglitazone via diet or no treatment (vehicle) for a further 4 weeks. An oral glucose tolerance test (OGTT) was performed at week 3. Hepatic fibrosis was assessed via measurements of hepatic fibrogenic/fibrolytic gene expression by RNA sequencing at 4 weeks.
(§3) In Biological Examples 10, 13-14, and 16-18, studies were performed in male ob/ob mice (5 weeks old) fed an AMLN high-fat diet for 18 weeks, then randomized into 6 groups (n=10 per group) to receive either Compound A (at 3 different daily doses, 45 mg/kg, 90 mg/kg or 135 mg/kg) via diet, 30 mg/kg bw per day obeticholic acid (OCA) via diet, or no treatment (vehicle) for a further 8 weeks. Assessment of NASH related parameters and fibrosis was made at study end by quantitative immune histochemistry (IHC) measurements.

[2] = test system: canonical genes regulating hepatic fibrogenesis; experiment: Hepatic fibrogenic gene expression by RNA sequencing in ob/ob AMLN mice; assay type: in vivo, mouse; conditions: 4 weeks, Compound A 112 mg/kg, pioglitazone 30 mg/kg
Description: as §1, §2

ob/ob AMLN mice [3] = experiment: Hepatic hydroxyproline (HYP) content in ob/ob AMLN mice; assay type: in vivo, mouse; conditions: 8 weeks; for HYP content, total: p<0.01; for HYP content, relative: p<0.05
Description: as §1, §3
To corroborate the anti-fibrotic effects seen with quantitative IHC, hepatic concentrations of hydroxyproline (HYP) were measured, as shown in FIG. 6E and FIG. 6F.

galectin-3 (Gal-3) = experiment: Hepatic galectin-3 (Gal-3) levels by IHC in ob/ob AMLN mice; assay type: in vivo, mouse; conditions: 8 weeks, Compound A 45, 90, 135 mg/kg
Description: as §1, §3
To assess the effects of 8 weeks treatment with either Compound A (45 mg/kg, 90 mg/kg, or 135 mg/kg) or OCA (30 mg/kg) on hepatic inflammation in ob/ob AMLN mice, IHC was performed to assess galectin-3 (Gal-3) levels.

ob/ob AMLN mice [4] = experiment: Hepatic steatosis and hepatic cholesterol content in ob/ob AMLN mice; assay type: in vivo, mouse; conditions: 8 weeks, Compound A 45-135 mg/kg, OCA 30 mg/kg
Description: as §1, §3

[5] = test system: LX-2 human hepatic stellate cells; experiment: LX-2 cell viability by MTS assay; assay type: cell-based; conditions: LX-2 cells; 24 hours; Compound A 10-75 μM, OA 75 μM
Description: Stellate cells are resident liver cells and the major cell type involved in the initiation and progression of liver fibrosis. In Biological Example 20, in vitro studies were performed on cultured human stellate cells (LX-2 cells) to assess direct effects of Compound A on these cells. Cells were treated for 24 hours with Compound A (10 μM, 25 μM, 50 μM, or 75 μM) or oleic acid (OA; 75 μM) and bromodeoxyuridine (BrdU) incorporation was assessed to determine effects on proliferation. A MTS (3-(4,5-dimethylthiazol-2-yl)-5-(3-carboxymethoxyphenyl)-2-(4-sulfophenyl)-2H-tetrazolium) assay was used to determine cell viability.
Cell proliferation of LX-2 human hepatic stellate cells treated for 24 hours with 10-75 μM of Compound A or oleic acid (OA) (75 μM) was assessed by BrdU incorporation. The results are normalised mean values ±S.E.M. of 5 independent experiments for icosabutate and 2 independent experiments for OA. […] The reduction in proliferation by Compound A was 25-34% at 24 hours whereas OA had no effect. The comparisons were made by one-way ANOVA with Dunnett's correction for multiple comparisons.

CETP = CETP expression in APOE*3.CETP mice; assay type: in vivo, mouse; conditions: Compound A
[6] = 8 weeks, Compound A 45, 90 and 135 mg/kg, OCA 30 mg/kg bw per day

CC/C=C\C/C=C\C/C=C\C/C=C\C/C=C\CCCCOC(CC)C(=O)O (centres unmarked) [Compound A, 2-((5Z,8Z,11Z,14Z,17Z)-icosa-5,8,11,14,17-pentaenyloxy)butanoic acid]
Decrease in hypertrophy vs. control (%) (APOE*3Leiden.CETP mice): 83* %
Hepatocellular hypertrophy (APOE*3Leiden.CETP mice): 8.9 ± 5.9
body weight ([1]; 4 weeks, Compound A 112 mg/kg): no effect
body weight [1, 6]: neither Compound A (45 mg/kg, 90 mg/kg, and 135 mg/kg) nor OCA significantly affected body weight
food intake [1, 6]: not affected
hepatic HSP47 expression [2]: significantly reduced
hepatic PDGF-β expression [2]: significantly reduced
hepatic PDGFR-β expression [2]: significantly reduced
hepatic col1A1 expression [2]: significantly reduced
hepatic col3A1 expression [2]: significantly reduced
hepatic col4A1 expression [2]: significantly reduced
HYP content, total (ob/ob AMLN mice [3]; Compound A 90 mg/kg): reduced
HYP content, relative (ob/ob AMLN mice [3]; Compound A 90 mg/kg): reduced
HYP content, total (ob/ob AMLN mice [3]; Compound A 135 mg/kg): reduced
HYP content, relative (ob/ob AMLN mice [3]; Compound A 135 mg/kg): reduced
Gal-3 expression level, percentage of area (galectin-3 (Gal-3)): dose responsive reduction
Gal-3 expression level, total content (galectin-3 (Gal-3); OCA 30 mg/kg): dose responsive reduction
steatosis (percent area or total lipid content) (ob/ob AMLN mice [4]): significantly reduced
cell viability (MTS assay) [5]: neither Compound A nor OA showed a significant effect
CETP expression (CETP): significantly reduce CETP expression
